In the supplement of paper PMC10307832:

Assays:
Assay in all cases: relative viability (nuclei count vs DMSO), 5 days (fraction); higher = more cells survive
[1] = tested on: LXF-289
Summary of the method: (§1)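 Lung cancer cell lines were seeded in 1536-well plates and dosed by pin tool the next day, with either a single drug or a fixed anchor-drug dose combined with five library-drug doses (not always all listed) spaced in √10 steps. Five days later, one step fixed the cells and stained their nuclei (final 0.05% Triton X-100, 1% formaldehyde, 1 ug/ml Hoechst), and nuclei were counted on 4× images. Relative viability is the nuclei count in treated wells divided by the count in vehicle wells, and each value is the median of duplicate plates.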

[2] = tested on: NCI-H460
Summary of the method: as §1

[3] = tested on: NCI-H1734
Summary of the method: as §1

[4] = tested on: 201T
Summary of the method: as §1

[5] = tested on: NCI-H1437
Summary of the method: as §1

[6] = tested on: NCI-H1651
Summary of the method: as §1

[7] = tested on: H3255
Summary of the method: as §1

[8] = tested on: NCI-H23
Summary of the method: as §1

[9] = tested on: SW 900
Summary of the method: as §1

[10] = tested on: NCI-H441
Summary of the method: as §1

[11] = tested on: CAL-12T
Summary of the method: as §1

[12] = tested on: EMC-BAC-2
Summary of the method: as §1

[13] = tested on: UMC-11
Summary of the method: as §1

[14] = tested on: NCI-H2342
Summary of the method: as §1

[15] = tested on: ChaGo-K-1
Summary of the method: as §1

[16] = tested on: NCI-H838
Summary of the method: as §1

[17] = tested on: NCI-H2085
Summary of the method: as §1

[18] = tested on: NCI-H1975
Summary of the method: as §1

[19] = tested on: HOP-62
Summary of the method: as §1

[20] = tested on: NCI-H1755
Summary of the method: as §1

[21] = tested on: NCI-H2405
Summary of the method: as §1

[22] = tested on: NCI-H2347
Summary of the method: as §1

[23] = tested on: NCI-H2023
Summary of the method: as §1

`Oc1nc(-c2ccc(C(F)(F)F)cc2)nc2c1CSCC2` [XAV939] + Nc1nc2[nH]cc(CCc3ccc(C(=O)N[C@@H](CCC(=O)O)C(=O)O)cc3)c2c(=O)[nH]1 [Pemetrexed] (partner 0.2 µM) was tested, and the relative viability ([1]; first compound 0.08 µM) was 0.886, the relative viability ([1]; first compound 0.253 µM) was 0.916 and the relative viability ([1]; first compound 0.8 µM) was 0.957. For the same molecule, the relative viability ([1]; first compound 2.53 µM) was 0.895, the relative viability ([2]; first compound 0.08 µM) was 0.0608 and the relative viability ([2]; first compound 0.253 µM) was 0.0511. It also gave a relative viability ([2]; first compound 0.8 µM) of 0.07, a relative viability ([2]; first compound 2.53 µM) of 0.0697 and a relative viability ([3]; first compound 0.08 µM) of 0.444. For the same molecule, the relative viability ([3]; first compound 0.253 µM) was 0.405, the relative viability ([3]; first compound 0.8 µM) was 0.417 and the relative viability ([3]; first compound 2.53 µM) was 0.392. The relative viability ([4]; first compound 0.08 µM) was 0.359, the relative viability ([4]; first compound 0.253 µM) was 0.338 and the relative viability ([4]; first compound 0.8 µM) was 0.374. For the same molecule, the relative viability ([4]; first compound 2.53 µM) was 0.288, the relative viability ([5]; first compound 0.08 µM) was 0.294 and the relative viability ([5]; first compound 0.253 µM) was 0.272. It also gave a relative viability ([5]; first compound 0.8 µM) of 0.326, a relative viability ([5]; first compound 2.53 µM) of 0.276 and a relative viability ([6]; first compound 0.08 µM) of 0.576. It also gave a relative viability ([6]; first compound 0.253 µM) of 0.513, a relative viability ([6]; first compound 0.8 µM) of 0.545 and a relative viability ([6]; first compound 2.53 µM) of 0.4. For the same molecule, the relative viability ([7]; first compound 0.08 µM) was 0.576, the relative viability ([7]; first compound 0.253 µM) was 0.544 and the relative viability ([7]; first compound 0.8 µM) was 0.55. For the same molecule, the relative viability ([7]; first compound 2.53 µM) was 0.465, the relative viability ([8]; first compound 0.08 µM) was 0.727 and the relative viability ([8]; first compound 0.8 µM) was 0.543. The relative viability ([8]; first compound 2.53 µM) was 0.52, the relative viability ([9]; first compound 0.253 µM) was 0.45 and the relative viability ([9]; first compound 0.8 µM) was 0.483. The relative viability ([9]; first compound 2.53 µM) was 0.42, the relative viability ([10]; first compound 0.08 µM) was 0.243 and the relative viability ([10]; first compound 0.253 µM) was 0.242. The relative viability ([10]; first compound 0.8 µM) was 0.261, the relative viability ([10]; first compound 2.53 µM) was 0.231 and the relative viability ([11]; first compound 0.08 µM) was 1.2. The relative viability ([11]; first compound 0.253 µM) was 1.13, the relative viability ([11]; first compound 0.8 µM) was 1.18 and the relative viability ([11]; first compound 2.53 µM) was 0.814. It also gave a relative viability ([12]; first compound 0.08 µM) of 0.454, a relative viability ([12]; first compound 0.253 µM) of 0.399 and a relative viability ([12]; first compound 0.8 µM) of 0.412. It also gave a relative viability ([12]; first compound 2.53 µM) of 0.344, a relative viability ([13]; first compound 0.08 µM) of 0.893 and a relative viability ([13]; first compound 0.253 µM) of 0.635. The relative viability ([13]; first compound 0.8 µM) was 0.731, the relative viability ([13]; first compound 2.53 µM) was 0.636 and the relative viability ([14]; first compound 0.08 µM) was 0.784. The relative viability ([14]; first compound 0.253 µM) was 0.662, the relative viability ([14]; first compound 0.8 µM) was 0.719 and the relative viability ([14]; first compound 2.53 µM) was 0.426. The relative viability ([15]; first compound 0.08 µM) was 0.261, the relative viability ([15]; first compound 0.253 µM) was 0.259 and the relative viability ([15]; first compound 0.8 µM) was 0.269. It also gave a relative viability ([15]; first compound 2.53 µM) of 0.26, a relative viability ([16]; first compound 0.08 µM) of 0.252 and a relative viability ([16]; first compound 0.253 µM) of 0.245. For the same molecule, the relative viability ([16]; first compound 0.8 µM) was 0.244, the relative viability ([16]; first compound 2.53 µM) was 0.233 and the relative viability ([17]; first compound 0.08 µM) was 1.02. For the same molecule, the relative viability ([17]; first compound 0.253 µM) was 0.801, the relative viability ([17]; first compound 0.8 µM) was 0.878 and the relative viability ([17]; first compound 2.53 µM) was 0.837. For the same molecule, the relative viability ([18]; first compound 0.08 µM) was 0.27, the relative viability ([18]; first compound 0.253 µM) was 0.273 and the relative viability ([18]; first compound 0.8 µM) was 0.286. It also gave a relative viability ([18]; first compound 2.53 µM) of 0.246, a relative viability ([19]; first compound 0.08 µM) of 0.347 and a relative viability ([19]; first compound 0.253 µM) of 0.287. For the same molecule, the relative viability ([19]; first compound 0.8 µM) was 0.292, the relative viability ([19]; first compound 2.53 µM) was 0.215 and the relative viability ([20]; first compound 0.08 µM) was 0.382. It also gave a relative viability ([20]; first compound 0.253 µM) of 0.425, a relative viability ([20]; first compound 0.8 µM) of 0.489 and a relative viability ([20]; first compound 2.53 µM) of 0.336. The relative viability ([21]; first compound 0.08 µM) was 0.972, the relative viability ([21]; first compound 0.253 µM) was 0.992 and the relative viability ([21]; first compound 0.8 µM) was 0.945. It also gave a relative viability ([21]; first compound 2.53 µM) of 0.94, a relative viability ([22]; first compound 0.08 µM) of 0.456 and a relative viability ([22]; first compound 0.253 µM) of 0.41. It also gave a relative viability ([22]; first compound 0.8 µM) of 0.435, a relative viability ([22]; first compound 2.53 µM) of 0.42 and a relative viability ([23]; first compound 0.08 µM) of 0.279. For the same molecule, the relative viability ([23]; first compound 0.253 µM) was 0.197, the relative viability ([23]; first compound 0.8 µM) was 0.208 and the relative viability ([23]; first compound 2.53 µM) was 0.199.
